The results in this text go back to ChEMBL document CHEMBL1201862, “PubChem BioAssay data set” (2004).

The structures appear in SMILES notation.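 All cell lines were grown in 96-well plates and treated with compound for 48 hours. Abbreviation: GI50, concentration required for 50% inhibition of growth.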 Activity calls are given as the source filed them. Rule as the data show it: active = GI50 up to about 1.1 µM and inactive = higher.

Among the test systems are MDA-MB-231; BT-549; LOX IMVI; OVCAR-3; UO-31; RXF 393; PC-3; CAKI-1; OVCAR-4; MCF7; T47D; HOP-62; OVCAR-8; SK-MEL-2; HOP-92; TK-10; NCI-H522; SR; DU-145; UACC-62.
What all share (experiment): NCI tumour cell line growth inhibition, 48 h

Turning to `C=CCCCCCCC#CCCCCCCCCCC[C@@H]1C(=O)O[C@H](C)[C@@H]1O.CCCCCCCCC#CCCCCCCCCCC[C@@H]1C(=O)O[C@H](C)[C@@H]1O`, the GI50 with MDA-MB-231 was 23.6 µM (inactive); in the assay on BT-549, 15.5 µM (inactive); in the assay on LOX IMVI it was 12.9 µM (inactive); in the assay with OVCAR-3 it was 20.2 µM (inactive); with UO-31, 15.6 µM (inactive); with RXF 393 it was 11.4 µM (inactive). Also, the GI50 in the assay on PC-3 was 13.1 µM (inactive); in the assay with CAKI-1, 15.5 µM (inactive); in the assay on OVCAR-4, 16.4 µM (inactive); with MCF7, 15.4 µM (inactive); in the assay on T47D it was 14.9 µM (inactive); with HOP-62, 16 µM (inactive). The GI50 in the assay with OVCAR-8 is 15.3 µM (inactive); in the assay on SK-MEL-2, 14.7 µM (inactive); in the assay on HOP-92, 10.5 µM (inactive); in the assay with TK-10 it was 15.7 µM (inactive); with NCI-H522 it was 5.32 µM (inactive).

With `C/C(=C\C(=O)O)C(=O)N(C)c1ccccc1I`, the GI50 in the assay with MDA-MB-231, in the assay on LOX IMVI, in the assay with OVCAR-3, in the assay with UO-31, with SR and with RXF 393 was > 100 µM (inactive) throughout. Also, the GI50 in the assay on PC-3, in the assay on CAKI-1, in the assay on OVCAR-4, in the assay on MCF7, with T47D and in the assay on HOP-62 was > 100 µM (inactive) each time. Further, the GI50 in the assay with DU-145, with OVCAR-8, with SK-MEL-2, in the assay on HOP-92 and in the assay on UACC-62 was > 100 µM (inactive) each time.

Regarding `CC(C)/C(Cl)=N\OC(=O)Nc1ccc(F)c([N+](=O)[O-])c1`, the GI50 in the assay on MDA-MB-231 is 12.7 µM (inactive); in the assay with BT-549, 13.4 µM (inactive); in the assay with LOX IMVI, 4.54 µM (inactive); in the assay on OVCAR-3, 14.2 µM (inactive); with UO-31 it was 6.56 µM (inactive); in the assay on SR, 5.65 µM (inactive). Further, the GI50 with RXF 393 is 18 µM (inactive); with PC-3 it was 18.1 µM (inactive); with CAKI-1, 1.81 µM (inactive); with OVCAR-4, 4.07 µM (inactive); in the assay on MCF7 it was 17.7 µM (inactive); in the assay with HOP-62 it was 17.8 µM (inactive). Further, the GI50 was 18.2 µM (inactive) in the assay with DU-145; 5.52 µM (inactive) with OVCAR-8; 16.2 µM (inactive) in the assay on SK-MEL-2; 2.22 µM (inactive) with HOP-92; 17.6 µM (inactive) in the assay on UACC-62; 6.22 µM (inactive) in the assay on TK-10. In addition, the GI50 with NCI-H522 was 0.792 µM (active).

As for `Oc1c(Cl)c(Cl)c(O)c(CCNc2ccc3ncccc3c2)c1Cl`, the GI50 was 15.5 µM (inactive) in the assay with OVCAR-3; 12.2 µM (inactive) in the assay with UO-31; 3.14 µM (inactive) in the assay with SR; 18.9 µM (inactive) in the assay with RXF 393; 28 µM (inactive) with PC-3; 12.6 µM (inactive) in the assay with CAKI-1. The GI50 in the assay with OVCAR-4 was 79.6 µM (inactive); with MCF7, 4.76 µM (inactive); with T47D, 11 µM (inactive); in the assay on HOP-62 it was 12.5 µM (inactive); with DU-145, 21.5 µM (inactive); with OVCAR-8, 12.1 µM (inactive). In addition, the GI50 in the assay on SK-MEL-2 was 6.32 µM (inactive); with HOP-92, 30.5 µM (inactive); in the assay on UACC-62 it was 10.9 µM (inactive); in the assay on TK-10 it was 13.4 µM (inactive); with NCI-H522, 2.17 µM (inactive).

With `CCOC(=O)Cc1nnc2c(-c3ccccc3)nc3ccccc3n12`, the GI50 with MDA-MB-231 is 19.2 µM (inactive); in the assay on BT-549 it was > 100 µM (inactive); with LOX IMVI, 53.7 µM (inactive); in the assay on OVCAR-3 it was 14.6 µM (inactive); in the assay with UO-31, 71 µM (inactive); in the assay on SR, > 100 µM (inactive). The GI50 in the assay with RXF 393 was 20.6 µM (inactive); with PC-3 it was 34.5 µM (inactive); with OVCAR-4, > 100 µM (inactive); in the assay with MCF7, 85.3 µM (inactive); in the assay on HOP-62 it was 14.4 µM (inactive); in the assay with DU-145, 33 µM (inactive). In addition, the GI50 in the assay with SK-MEL-2 was 28.1 µM (inactive); with HOP-92, 41.6 µM (inactive); in the assay with UACC-62 it was 44.7 µM (inactive); in the assay on TK-10, 31.2 µM (inactive).

As for `CC(=O)c1c2c(cc3c1CC1(Cc4cc5c(cc4C1)CCC5)C3)CCC2`, the GI50 in the assay on MDA-MB-231, with LOX IMVI, with OVCAR-3, in the assay with UO-31, in the assay on SR and in the assay with RXF 393 was > 100 µM (inactive) in each case. Besides, the GI50 with PC-3, in the assay on CAKI-1, in the assay on OVCAR-4, with MCF7, in the assay with T47D and in the assay on HOP-62 was > 100 µM (inactive) in each case. For the same compound, the GI50 with DU-145, in the assay with OVCAR-8, in the assay with SK-MEL-2, in the assay on HOP-92, in the assay on TK-10 and in the assay on NCI-H522 was > 100 µM (inactive) in each case.

Take `CC(=O)OCC1OC(OCC2OC(N3C(=S)N[C@H]([C@@H](O)[C@H](O)[C@H](O)CO)[C@H]3O)C(OC(C)=O)C(OC(C)=O)C2OC(C)=O)C(OC(C)=O)C(OC(C)=O)C1OC(C)=O` (some centres undefined): the GI50 in the assay with MDA-MB-231, in the assay with OVCAR-3, in the assay on UO-31, with SR, with RXF 393 and with PC-3 was > 100 µM (inactive) throughout. In addition, the GI50 with CAKI-1 is > 100 µM (inactive); in the assay with OVCAR-4, > 100 µM (inactive); in the assay with MCF7 it was > 100 µM (inactive); with T47D, 61.8 µM (inactive); in the assay with HOP-62, > 100 µM (inactive); in the assay with DU-145, > 100 µM (inactive). Besides, the GI50 was 43.9 µM (inactive) in the assay with OVCAR-8; > 100 µM (inactive) with SK-MEL-2; 33.5 µM (inactive) in the assay on HOP-92; > 100 µM (inactive) with UACC-62; > 100 µM (inactive) with TK-10; 83.8 µM (inactive) in the assay with NCI-H522.

As for `O=C1c2ccccc2C(=O)c2c(NCC3CO3)cccc21` (centres undefined), the GI50 is 15.2 µM (inactive) in the assay on MDA-MB-231; 19 µM (inactive) in the assay with BT-549; 1.38 µM (inactive) in the assay with LOX IMVI; 15.4 µM (inactive) with OVCAR-3; 8.05 µM (inactive) in the assay on UO-31; 7.66 µM (inactive) in the assay on RXF 393. The GI50 with PC-3 is 16.9 µM (inactive); in the assay with CAKI-1 it was 4.75 µM (inactive); in the assay on OVCAR-4, > 86.1 µM (inactive); in the assay on MCF7, 1.31 µM (inactive); with T47D it was > 100 µM (inactive); in the assay with HOP-62, > 46.1 µM (inactive). In addition, the GI50 was 7.19 µM (inactive) with OVCAR-8; 17.2 µM (inactive) in the assay with SK-MEL-2; 94.4 µM (inactive) with HOP-92; 16 µM (inactive) in the assay on UACC-62; 40.9 µM (inactive) with TK-10; 23.2 µM (inactive) in the assay on NCI-H522.

Turning to `Cc1nc(Cc2n[nH]c(C)n2)n[nH]1`, the GI50 in the assay with MDA-MB-231, in the assay on BT-549, with LOX IMVI, in the assay on OVCAR-3, in the assay on UO-31 and in the assay on SR was > 100 µM (inactive) in each case. Moreover, the GI50 in the assay with RXF 393, with PC-3, with OVCAR-4, with MCF7, in the assay with HOP-62 and with DU-145 was > 100 µM (inactive) in each case. Besides, the GI50 in the assay with OVCAR-8, in the assay with SK-MEL-2, with HOP-92, in the assay on UACC-62, in the assay on TK-10 and in the assay on NCI-H522 was > 100 µM (inactive) each time.

Regarding `C/N=C(\N)N/N=C(\C)c1ccc2oc3ccc(/C(C)=N/N/C(N)=N/C)cc3c2c1`, the GI50 with LOX IMVI was 2.56 µM (inactive); in the assay on OVCAR-3 it was 2.64 µM (inactive); in the assay on UO-31, 6.31 µM (inactive); in the assay with SR, 1.51 µM (inactive); in the assay on PC-3, 3.01 µM (inactive); with CAKI-1 it was 19.4 µM (inactive). Besides, the GI50 with OVCAR-4 is 3.8 µM (inactive); with MCF7 it was 1.05 µM (active); with HOP-62, 1.54 µM (inactive); with DU-145 it was 2.35 µM (inactive); in the assay with OVCAR-8 it was 9.27 µM (inactive); with SK-MEL-2, 2 µM (inactive). Further, the GI50 in the assay on HOP-92 is 2.07 µM (inactive); in the assay with UACC-62 it was 2.88 µM (inactive); in the assay on TK-10, 4.38 µM (inactive); with NCI-H522 it was 1.67 µM (inactive).

As to `O=C(/C=C/c1ccsc1)c1ccsc1`, the GI50 in the assay on MDA-MB-231 is 20.6 µM (inactive); in the assay on LOX IMVI it was 19.1 µM (inactive); in the assay with UO-31, 15.4 µM (inactive); in the assay on SR it was 19.5 µM (inactive); with PC-3, 19.8 µM (inactive); in the assay with CAKI-1, 20.9 µM (inactive). Further, the GI50 was 37.2 µM (inactive) in the assay with OVCAR-4; 13.8 µM (inactive) in the assay with MCF7; 28.2 µM (inactive) in the assay with T47D; > 100 µM (inactive) with HOP-62; > 100 µM (inactive) in the assay on DU-145; 26.6 µM (inactive) in the assay on OVCAR-8. For the same compound, the figures for the GI50 with SK-MEL-2, with UACC-62 and in the assay on TK-10 were > 100 µM (inactive), 32.4 µM (inactive) and 23.8 µM (inactive), respectively.
